Measured values taken from the supplement of paper PMC13380429.

Assays:
Conditions in all cases: 72 h
[1] = test system: U2OS; assay: relative viability EC50 (midpoint between 100% and the lowest measured viability); higher = less toxic
[2] = test system: Calu-3; assay: as above
[3] = test system: Vero E6; assay: as above
[4] = test system: Caco-2; assay: as above
[5] = test system: HepG2; assay: as above
[6] = test system: U2OS; assay: cell viability relative to DMSO; higher = less toxic
[7] = test system: Calu-3; assay: as above
[8] = test system: Vero E6; assay: as above
[9] = test system: Caco-2; assay: as above
[10] = test system: HepG2; assay: as above
[11] = test system: U2OS; assay: drug sensitivity score (DSS) for viability; higher = more toxic; extreme values may be limits of the assay
[12] = test system: Calu-3; assay: as above
[13] = test system: Vero E6; assay: as above
[14] = test system: Caco-2; assay: as above
[15] = test system: HepG2; assay: as above

SMILES	relative viability EC50 [1]	relative viability EC50 [2]	relative viability EC50 [3]	relative viability EC50 [4]	relative viability EC50 [5]	cell viability ([6]; 1 nM)	cell viability ([6]; 10 nM)	cell viability ([6]; 100 nM)	cell viability ([6]; 1000 nM)	cell viability ([6]; 10000 nM)	cell viability ([7]; 1 nM)	cell viability ([7]; 10 nM)	cell viability ([7]; 100 nM)	cell viability ([7]; 1000 nM)	cell viability ([7]; 10000 nM)	cell viability ([8]; 1 nM)	cell viability ([8]; 10 nM)	cell viability ([8]; 100 nM)	cell viability ([8]; 1000 nM)	cell viability ([8]; 10000 nM)	cell viability ([9]; 1 nM)	cell viability ([9]; 10 nM)	cell viability ([9]; 100 nM)	cell viability ([9]; 1000 nM)	cell viability ([9]; 10000 nM)	cell viability ([10]; 1 nM)	cell viability ([10]; 10 nM)	cell viability ([10]; 100 nM)	cell viability ([10]; 1000 nM)	cell viability ([10]; 10000 nM)	drug sensitivity score [11]	drug sensitivity score [12]	drug sensitivity score [13]	drug sensitivity score [14]	drug sensitivity score [15]
COC(=O)[C@@H](N)CS [mecysteine]	> 10 µM	> 10 µM	> 10 µM	> 10 µM	> 10 µM	98.2%	101%	96.3%	100%	95.3%	104%	106%	87.2%	109%	99.2%	95.8%	97.5%	98.5%	88.6%	101%	96.1%	95%	97.7%	99.8%	102%	108%	107%	99.6%	91.1%	105%	0	0	0	0	0
Cc1cc(C)cc(OCC2CNC(=O)O2)c1 (stereo not given) [metaxalone]	> 10 µM	> 10 µM	> 10 µM	> 10 µM	> 10 µM	97.4%	96.8%	97.1%	99.2%	98.8%	95.6%	102%	103%	100%	95.4%	101%	103%	102%	105%	97.7%	100%	101%	99.9%	103%	105%	92.1%	99.7%	87%	93.2%	101%	0	0	0	0	0
Cc1cc(=O)[nH]c(=S)[nH]1 [methylthiouracil]	> 10 µM	> 10 µM	> 10 µM	> 10 µM	> 10 µM	103%	99%	98.7%	97.4%	97.3%	106%	109%	83.8%	97.7%	96.6%	101%	92.6%	100%	92.1%	97.8%	98.7%	96.6%	99.3%	96.3%	94.6%	107%	108%	95.1%	95.3%	105%	0	0	0	0	0
O=P(O)(O)C(O)(Cc1cnc2ccccn12)P(=O)(O)O [minodronic-acid]	> 10 µM	> 10 µM	> 10 µM	> 10 µM	> 10 µM	100%	97.6%	95.9%	102%	102%	98.1%	95.1%	104%	96.5%	106%	106%	102%	98.6%	100%	98.1%	98.1%	103%	96.4%	103%	98.6%	99.2%	102%	106%	85.5%	101%	0	0	0	0	0
Oc1ccc2c3c1O[C@H]1[C@@H](O)CC[C@@]4(O)[C@@H](C2)N(CC2CCC2)CC[C@]314 [nalbuphine]	> 10 µM	> 10 µM	> 10 µM	> 10 µM	> 10 µM	97.7%	96.5%	98.2%	92.4%	96.9%	103%	95.2%	95.9%	117%	105%	99.9%	104%	95.3%	102%	96.5%	102%	102%	101%	88.4%	98.6%	107%	99.2%	110%	95.9%	91.4%	0	0	0	0	0
CCOc1cc2ncc(C#N)c(Nc3ccc(OCc4ccccn4)c(Cl)c3)c2cc1NC(=O)/C=C/CN(C)C [neratinib]	> 10 µM	0.0124 µM	1.14 µM	0.365 µM	1.59 µM	93.6%	96.7%	96.7%	88%	75.7%	93.4%	69.6%	43.9%	34.9%	33.7%	104%	102%	90.9%	64.1%	17.5%	98.7%	93.4%	85.1%	54.7%	35%	111%	97.3%	88.2%	77.6%	17.8%	1.8	22.8	8.7	10.3	7.5
CNCCC(Oc1ccccc1OC)c1ccccc1 (stereo not given) [nisoxetine]	> 10 µM	> 10 µM	> 10 µM	> 10 µM	> 10 µM	105%	98.3%	102%	99%	102%	94%	107%	98.2%	109%	102%	107%	104%	101%	103%	95.6%	105%	96.2%	109%	98.6%	107%	113%	105%	104%	108%	99%	0	0	0	0	0
CCN(Cc1ccc(Cl)nc1)/C(=C/[N+](=O)[O-])NC [nitenpyram]	> 10 µM	> 10 µM	> 10 µM	> 10 µM	> 10 µM	99%	97%	98%	100%	101%	101%	94%	93.5%	104%	94%	103%	104%	98.1%	96.9%	105%	95.8%	100%	95%	97.5%	98.3%	104%	98.7%	105%	97.5%	108%	0	0	0	0	0
CC(=O)O[C@]1(C(C)=O)CC[C@H]2[C@@H]3C=C(C)C4=CC(=O)CC[C@@H]4[C@H]3CC[C@@]21C [nomegestrol-acetate]	> 10 µM	> 10 µM	> 10 µM	> 10 µM	> 10 µM	99.8%	102%	102%	103%	101%	99%	94.1%	87.7%	106%	108%	100%	96.3%	99.3%	98.6%	111%	88.5%	97.3%	102%	91.6%	97.4%	103%	97.1%	102%	106%	110%	0	0	0	0	0
NC[C@H](O)c1ccc(O)c(O)c1 [norepinephrine]	> 10 µM	> 10 µM	> 10 µM	> 10 µM	> 10 µM	99.4%	100%	98.5%	99.8%	99.6%	101%	88.3%	93.7%	98.6%	95.3%	99.9%	96.7%	98.1%	95%	98.6%	88.9%	95.9%	101%	93.2%	97.5%	102%	95.3%	96%	105%	106%	0	0	0	0	0
Cc1c(-c2cnccn2)ssc1=S [oltipraz]	> 10 µM	> 10 µM	> 10 µM	> 10 µM	> 10 µM	98.3%	96.5%	101%	96.4%	104%	94%	94.7%	106%	96.5%	101%	88.1%	95.2%	88.7%	93%	104%	94.2%	96%	103%	106%	101%	93.4%	103%	94.2%	94.7%	105%	0	0	0	0	0
N[C@H](C(=O)O)c1ccc(O)cc1 [oxfenicine]	> 10 µM	> 10 µM	> 10 µM	> 10 µM	> 10 µM	99.7%	103%	98.6%	102%	95.7%	103%	95.1%	99.2%	103%	103%	99.7%	96.3%	101%	91.3%	99.1%	94.2%	90.6%	88.6%	88.6%	96.3%	84.1%	96.3%	96.9%	103%	100%	0	0	0	0	0
Oc1cccc2cccnc12 [oxyquinoline]	> 10 µM	> 10 µM	> 10 µM	> 10 µM	> 10 µM	101%	97.5%	103%	97.5%	100%	101%	114%	95.5%	104%	98.8%	96%	100%	94.2%	103%	90.8%	109%	96.4%	84.7%	93.2%	88.7%	119%	79.7%	110%	102%	80.9%	0	0	0	3.1	0.3
N=C(N)NC(=N)NCCc1ccccc1 [phenformin]	> 10 µM	> 10 µM	> 10 µM	> 10 µM	> 10 µM	95.9%	97.6%	93.8%	98.8%	97.1%	90.2%	100%	96.5%	98.8%	102%	98.8%	95.3%	107%	98.4%	96.4%	86.7%	101%	93.7%	91.8%	81.5%	106%	101%	102%	98%	85.8%	0	0	0	0.5	0.3
